Measured values: patent US8895588B2, “Pyrazole compound” (Takeda Pharmaceutical Company Limited, priority 2009, dated 2014)
pIC50: −log10 of the molar value.

Key:
[1] = molecular target: T1, H^+/K^+-ATPase (Sus scrofa, UniProt P19156); assay: Proton potassium-adenosine triphosphatase (H+,K+-ATPase) inhibitory activity test; type: biochemical; conditions: swine gastric mucosa microsomal fraction, pH 6.5, 37° C.
T1 construct: The obtained microsomal fraction was used as proton, potassium-adenosine triphosphatase preparations; from tissue; host or cells: swine stomach, microsomal fraction of gastric mucosa
T1 sequence (P19156 whole entry): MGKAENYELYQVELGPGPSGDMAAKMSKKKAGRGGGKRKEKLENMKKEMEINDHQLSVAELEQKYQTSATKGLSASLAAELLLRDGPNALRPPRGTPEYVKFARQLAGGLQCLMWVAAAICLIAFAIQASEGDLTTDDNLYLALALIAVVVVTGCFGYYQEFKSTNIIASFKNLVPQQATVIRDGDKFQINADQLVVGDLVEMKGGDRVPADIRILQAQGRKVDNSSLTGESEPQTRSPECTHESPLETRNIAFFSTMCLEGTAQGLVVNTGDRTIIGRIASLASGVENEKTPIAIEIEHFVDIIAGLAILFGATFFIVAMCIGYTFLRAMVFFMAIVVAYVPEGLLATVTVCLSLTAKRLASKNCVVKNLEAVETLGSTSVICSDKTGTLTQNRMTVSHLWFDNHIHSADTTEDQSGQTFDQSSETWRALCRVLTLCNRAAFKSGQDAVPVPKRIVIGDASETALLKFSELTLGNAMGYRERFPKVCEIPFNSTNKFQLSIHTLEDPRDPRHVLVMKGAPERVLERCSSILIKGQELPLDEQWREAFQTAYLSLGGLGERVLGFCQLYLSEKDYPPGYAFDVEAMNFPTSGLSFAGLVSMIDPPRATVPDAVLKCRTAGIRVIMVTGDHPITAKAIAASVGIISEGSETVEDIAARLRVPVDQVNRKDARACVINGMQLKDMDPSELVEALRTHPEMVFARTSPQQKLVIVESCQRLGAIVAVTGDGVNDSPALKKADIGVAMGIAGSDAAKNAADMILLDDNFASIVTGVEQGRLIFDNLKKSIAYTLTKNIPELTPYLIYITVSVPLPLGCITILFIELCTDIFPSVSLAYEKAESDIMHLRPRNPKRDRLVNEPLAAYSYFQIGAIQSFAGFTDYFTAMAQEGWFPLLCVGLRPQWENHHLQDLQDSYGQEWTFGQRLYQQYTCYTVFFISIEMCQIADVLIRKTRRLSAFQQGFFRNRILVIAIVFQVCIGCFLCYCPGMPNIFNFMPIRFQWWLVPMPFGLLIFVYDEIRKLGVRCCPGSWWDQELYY
T1 sequence (P18434 whole entry partner): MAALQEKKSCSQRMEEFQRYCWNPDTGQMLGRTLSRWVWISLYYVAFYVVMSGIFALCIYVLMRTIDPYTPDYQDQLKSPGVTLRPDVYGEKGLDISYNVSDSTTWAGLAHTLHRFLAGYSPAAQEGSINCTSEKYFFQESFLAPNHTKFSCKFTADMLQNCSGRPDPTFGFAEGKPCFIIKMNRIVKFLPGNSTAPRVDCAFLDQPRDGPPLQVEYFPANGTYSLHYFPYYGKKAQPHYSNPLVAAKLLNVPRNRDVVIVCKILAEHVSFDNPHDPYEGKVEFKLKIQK
Procedure: Proton Potassium-Adenosine Triphosphatase (H^+,K^+-ATPase) Inhibitory Activity Test According to the method of Wallmark et al. [Biochim. Biophys. Acta, 728, 31 (1983)], a microsomal fraction of gastric mucosa was prepared from the stomach of swine. First, the stomach was removed, washed with tap water, and immersed in 3 mol/L sodium chloride, and the surface of the mucosa was wiped with a paper towel. The gastric mucosa was removed, minced, and homogenized in a 0.25 mol/L sucrose solution (pH 6.8) containing 1 mmol/L EDTA and 10 mmol/L tris-hydrochloric acid using polytron (Kinematica). The obtained homogenate was centrifuged at 20,000×g for 30 min and the supernatant was centrifuged at 100,000×g for 90 min. The precipitate was suspended in 0.25 mol/L sucrose solution, the suspension was superimposed on a 0.25 mol/L sucrose solution containing 7.5% Ficoll, and centrifuged at 100,000×g for 5 hr. The fraction containing the interface between the both layers was recovered, and centrifugally washed with 0.25 mol/L sucrose solution. The obtained microsomal fraction was used as proton, potassium-adenosine triphosphatase preparations. To 50 mmol/L HEPES-Tris buffer (5 mmol/L magnesium chloride, 10 mmol/L potassium chloride, 10 μmol/L valinomycin, pH=6.5, 40 μL) containing 2.5 μg/mL enzyme preparation based on the protein concentration was added a test compound (5 μL) dissolved in 10% dimethyl sulfoxide solution, and the mixture was incubated at 37° C. for 30 min. A 2 mmol/L adenosine triphosphate tris salt solution (50 mmol/L HEPES-tris buffer (5 mmol/L magnesium chloride, pH 6.5), 5 μL) was added to start an enzyme reaction. The enzyme reaction was performed at 37° C. for 20 min, and then a malachite green solution (a mixture of 0.12% malachite green sulfate (2.5 mol/L) solution, 7.5% ammonium molybdate and 11% Tween 20 at a ratio of 100:25:2, 15 μL) was added to stop the reaction. The reaction mixture was stood at room temperature for 15 min, and the resulting reaction product of inorganic phosphorus and malachite green was measured by colorimetric quantification at a wavelength of 610 nm. In addition, the amount of inorganic phosphoric acid in a reaction solution free of potassium chloride was also measured in the same manner, and the value was extracted from that in the presence of potassium chloride, whereby the proton, potassium-adenosine triphosphatase activity was measured. The inhibitory rate (%) was determined from the activity value of the control and that at each concentration of the test compound, and 50% inhibitory concentration (IC50) to proton, potassium-adenosine triphosphatase was determined.

[2] = test system: anesthetized rat; assay: Histamine-stimulated acid secretion suppression test using anesthetized rat; type: in vivo; conditions: 1 mg/kg i.v., anesthetized SD rat, 3 hr after histamine
Procedure: Histamine-Stimulated Acid Secretion Suppression Test Using Anesthetized Rat 7-Week-old Jcl: male SD rats were fasted for about 24 hr and used for the experiment. Under urethane (1.2 g/kg, i.p.) anesthesia, the abdomen was incised along the middle-spinal line and the pyloric ring was ligated. Test compound (1 mg/kg) was intravenously administered, the abdominal incision was sutured, and histamine dihydrochloride (30 mg/kg/10 mL) dissolved in physiological saline was subcutaneously administered. After 3 hr from histamine administration, the rats were killed with carbon dioxide gas. The stomach was isolated and the accumulated gastric fluid was collected. The gastric fluid amount was measured and the acid level was measured using acid titration apparatus COM-555 (HIRANUMA SANGYO Co., Ltd.), and the product thereof was taken as the acid secretion level. The acid secretion suppressive rate of the test compound was determined from the comparison with control.

[3] = test system: HepG2; assay: ATP content test; type: cell-based, human; conditions: HepG2, 100 μM, culture for one day, relative value to control (free of compound)
Procedure: (§1) ATP Content Test Human hepatocellular liver carcinoma cell line HepG2 (ATCC No. HB-8065) was maintained and subcultured at 5% CO2, 37° C. in a Dulbecco's modified Eagle medium (DMEM; Invitrogen) medium containing 10% fetal bovine serum (FBS; TRACE SCIENTIFIC LTD.), 1 mmol/L sodium pyruvate (Invitrogen), 2 mmol/L L-glutamine (Invitrogen), 50 IU/mL penicillin (Invitrogen), 50 μg/mL streptomycin (Invitrogen). Test reagent was prepared to 10 mM with DMSO, and diluted with DMEM medium containing 0.5% FBS, 1 mmol/L sodium pyruvate, 2 mmol/L L-glutamine, 50 IU/ml penicillin, 50 μg/mL streptomycin to the DMSO final concentration of 0.1%. HepG2 (2×10^4 cells/well) was cultured on a 96 well white plate (Costar) together with the test reagent at 5% CO2, 37° C. After culture for one day, the intracellular ATP content was measured with ATPLite™ (PerkinElmer Life Sciences). The results are shown in Table 1 as relative value (%) to the control (free of compound) at 100 μm (n≧3, mean±SD).

[4] = test system: Caspase-3/7; assay: Caspase-3/7 activity test; type: cell-based, human; conditions: HepG2, 100 μM, culture for one day, relative to staurosporine maximum as 100%, no test reagent as 0%
Procedure: as §1, with “Human” for “ATP Content Test Human”, “mean±SD). Caspase-3/7 Activity Test The cells were cultured for one day according to a method similar to the method of Experimental Example 3, and the intracellular Caspase-3/7 activity was measured by Caspase-Glo 3/7 Assay (Promega). The results are shown in Table 1 as relative activity (%) of each test reagent when the maximum value of Caspase-3/7 activity on exposure to staurosporine as 100%, and activity without addition of test reagent as 0% (n≧3, mean±SD).” for “mean±SD).”

Row | Compound | pIC50 [1] | acid secretion inhibitory rate (%, 1 mg/kg, intravenous administration, rat) [2] [%] | ATP content (%, 100 μM) [3] [%] | Caspase-3/7 activity (%, 100 μM) [4] [%]
1 | CNCc1cc(S(=O)(=O)c2cccc(C)c2)n(-c2cccnc2F)n1.Cl [Example 3, 1-{1-(2-fluoropyridin-3-yl)-5-[(3-methylphenyl)sulfonyl]-1H-pyrazol-3-yl}-N-methylmethanamine hydrochloride] | 7.06 | 95 | 90.1 | −0.2
2 | CNCc1cc(S(=O)(=O)c2ccc(OC)cc2)n(-c2cccnc2F)n1.Cl [Example 2, 1-{1-(2-fluoropyridin-3-yl)-5-[(4-methoxyphenyl)sulfonyl]-1H-pyrazol-3-yl}-N-methylmethanamine hydrochloride] | 6.46 | 82 | – | –
3 | CNCc1cc(S(=O)(=O)c2ccc(F)cc2)n(-c2cccnc2F)n1.Cl [Example 1, 1-{5-[(4-fluorophenyl)sulfonyl]-1-(2-fluoropyridin-3-yl)-1H-pyrazol-3-yl}-N-methylmethanamine hydrochloride] | 6.92 | 98 | 95.9 | 0.1
4 | CNCc1cc(S(=O)(=O)c2cccc(C#N)c2)n(-c2cccnc2F)n1.Cl [Example 4, 3-({1-(2-fluoropyridin-3-yl)-3-[(methylamino)methyl]-1H-pyrazol-5-yl}sulfonyl)benzonitrile hydrochloride] | 6.64 | 99 | 98.5 | 1.0
